# Laboratory results as given in patent US9676792B2, “Pyrimido-diazepinone compounds and methods of treating disorders” (Dana-Farber Cancer Institute, Inc., priority 2013, dated 2017).
# “And” between values parts separate entries of the source, which are not always exact repeats. Equal entries are not always repeated. Where two headings read alike, the source gives them in different places.
# Tests used:
# [1] = target: T1, EphB2 (Homo sapiens (Human), UniProt P29323); assay: ActivX kinase profiling; format: binding
# T1 sequence (P29323 19-1055): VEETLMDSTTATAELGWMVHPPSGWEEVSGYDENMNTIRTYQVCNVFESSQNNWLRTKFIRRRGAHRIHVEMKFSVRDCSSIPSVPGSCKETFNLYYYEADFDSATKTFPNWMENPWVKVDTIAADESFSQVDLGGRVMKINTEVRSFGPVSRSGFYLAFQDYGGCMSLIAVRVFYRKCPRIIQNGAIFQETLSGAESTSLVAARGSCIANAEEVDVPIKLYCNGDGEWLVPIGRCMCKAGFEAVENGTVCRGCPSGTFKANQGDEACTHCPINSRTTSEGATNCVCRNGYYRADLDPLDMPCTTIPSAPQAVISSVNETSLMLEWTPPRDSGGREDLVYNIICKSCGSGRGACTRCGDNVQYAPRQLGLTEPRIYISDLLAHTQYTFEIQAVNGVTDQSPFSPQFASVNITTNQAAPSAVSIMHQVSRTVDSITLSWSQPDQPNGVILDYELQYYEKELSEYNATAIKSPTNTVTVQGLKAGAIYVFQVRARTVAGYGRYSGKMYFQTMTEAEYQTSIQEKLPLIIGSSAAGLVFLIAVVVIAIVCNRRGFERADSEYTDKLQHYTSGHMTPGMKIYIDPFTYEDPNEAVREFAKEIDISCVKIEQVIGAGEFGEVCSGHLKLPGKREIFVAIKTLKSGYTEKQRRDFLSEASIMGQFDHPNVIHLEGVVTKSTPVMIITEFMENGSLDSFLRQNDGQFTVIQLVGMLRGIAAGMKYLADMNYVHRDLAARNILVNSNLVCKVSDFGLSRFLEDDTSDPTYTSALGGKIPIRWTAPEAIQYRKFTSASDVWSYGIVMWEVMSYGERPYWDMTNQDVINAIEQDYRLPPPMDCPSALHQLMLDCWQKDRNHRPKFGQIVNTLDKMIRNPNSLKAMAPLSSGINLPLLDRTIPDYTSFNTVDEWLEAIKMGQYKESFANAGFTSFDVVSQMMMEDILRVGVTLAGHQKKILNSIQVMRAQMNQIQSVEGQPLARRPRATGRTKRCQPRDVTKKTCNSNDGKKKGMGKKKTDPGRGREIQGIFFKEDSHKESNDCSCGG
# [2] = system: EPHA8; assay: Ambit kinase profiling; format: binding
# [3] = target: EphA7 (Homo sapiens (Human), UniProt Q15375); assay: Ambit kinase profiling; format: binding
# [4] = target: EPHA4 (Homo sapiens (Human), UniProt P54764); assay: Ambit kinase profiling; format: binding
# EPHA4, sequence (P54764 20-986): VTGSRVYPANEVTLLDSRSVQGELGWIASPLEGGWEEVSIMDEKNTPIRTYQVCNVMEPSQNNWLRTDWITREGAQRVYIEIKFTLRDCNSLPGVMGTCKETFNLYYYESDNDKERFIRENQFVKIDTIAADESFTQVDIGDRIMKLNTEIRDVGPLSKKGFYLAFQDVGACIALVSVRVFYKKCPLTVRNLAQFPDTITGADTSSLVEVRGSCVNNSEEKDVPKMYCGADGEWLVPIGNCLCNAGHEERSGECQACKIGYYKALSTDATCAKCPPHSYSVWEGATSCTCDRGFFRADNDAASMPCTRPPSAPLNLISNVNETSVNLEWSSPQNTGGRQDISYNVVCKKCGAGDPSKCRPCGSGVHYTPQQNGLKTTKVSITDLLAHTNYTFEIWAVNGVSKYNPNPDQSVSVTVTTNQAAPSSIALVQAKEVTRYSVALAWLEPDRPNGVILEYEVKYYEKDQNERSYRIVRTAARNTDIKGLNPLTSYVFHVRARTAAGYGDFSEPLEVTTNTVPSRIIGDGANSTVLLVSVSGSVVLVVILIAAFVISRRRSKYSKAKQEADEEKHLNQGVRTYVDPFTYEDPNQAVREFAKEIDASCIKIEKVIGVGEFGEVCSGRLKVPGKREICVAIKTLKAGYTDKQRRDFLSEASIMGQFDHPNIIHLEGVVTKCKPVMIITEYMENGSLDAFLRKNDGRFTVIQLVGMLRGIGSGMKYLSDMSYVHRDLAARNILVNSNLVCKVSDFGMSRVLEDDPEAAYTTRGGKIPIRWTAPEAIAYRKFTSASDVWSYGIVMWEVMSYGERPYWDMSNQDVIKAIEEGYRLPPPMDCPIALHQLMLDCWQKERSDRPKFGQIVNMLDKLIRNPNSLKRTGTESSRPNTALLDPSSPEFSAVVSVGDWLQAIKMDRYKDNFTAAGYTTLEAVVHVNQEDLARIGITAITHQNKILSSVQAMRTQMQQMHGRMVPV
# [5] = target: EPHA5 (Homo sapiens (Human), UniProt P54756); assay: Ambit kinase profiling; format: binding
# [6] = target: EPHB3 (Homo sapiens (Human), UniProt P54753); assay: Ambit kinase profiling; format: binding
# EPHB3, sequence (P54753 34-998): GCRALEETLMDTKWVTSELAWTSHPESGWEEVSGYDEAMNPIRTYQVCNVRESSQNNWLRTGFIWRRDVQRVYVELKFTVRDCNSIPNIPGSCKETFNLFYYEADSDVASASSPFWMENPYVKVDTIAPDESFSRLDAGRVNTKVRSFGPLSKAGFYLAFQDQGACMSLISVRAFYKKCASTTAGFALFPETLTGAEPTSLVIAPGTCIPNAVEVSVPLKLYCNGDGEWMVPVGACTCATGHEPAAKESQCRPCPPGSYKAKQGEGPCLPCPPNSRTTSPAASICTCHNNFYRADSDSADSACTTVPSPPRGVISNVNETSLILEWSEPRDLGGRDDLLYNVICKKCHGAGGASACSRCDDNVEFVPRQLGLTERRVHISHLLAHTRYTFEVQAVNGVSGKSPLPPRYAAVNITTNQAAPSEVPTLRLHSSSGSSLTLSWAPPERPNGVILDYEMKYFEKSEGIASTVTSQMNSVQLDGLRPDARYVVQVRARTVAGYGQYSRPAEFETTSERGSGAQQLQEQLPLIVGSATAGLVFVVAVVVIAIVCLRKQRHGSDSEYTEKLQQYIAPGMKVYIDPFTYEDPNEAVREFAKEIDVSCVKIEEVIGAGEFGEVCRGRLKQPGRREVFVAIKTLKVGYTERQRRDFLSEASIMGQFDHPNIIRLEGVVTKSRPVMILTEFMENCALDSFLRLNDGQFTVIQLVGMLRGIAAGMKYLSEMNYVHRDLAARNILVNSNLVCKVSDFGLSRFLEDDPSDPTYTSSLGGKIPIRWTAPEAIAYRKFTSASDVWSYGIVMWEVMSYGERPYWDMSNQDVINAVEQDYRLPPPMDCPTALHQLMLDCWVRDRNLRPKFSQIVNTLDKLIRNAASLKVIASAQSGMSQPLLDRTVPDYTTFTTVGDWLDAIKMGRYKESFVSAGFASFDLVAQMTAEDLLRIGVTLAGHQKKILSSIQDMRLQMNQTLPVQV
# [7] = target: EPHA3 (Homo sapiens (Human), UniProt P29320); assay: Ambit kinase profiling; format: binding
# [8] = target: EphA1 (Homo sapiens (Human), UniProt P21709); assay: Ambit kinase profiling; format: binding
# [9] = target: T2, EphA2 (Homo sapiens (Human), UniProt P29317); assay: Ambit kinase profiling; format: binding
# T2 sequence (P29317 24-976): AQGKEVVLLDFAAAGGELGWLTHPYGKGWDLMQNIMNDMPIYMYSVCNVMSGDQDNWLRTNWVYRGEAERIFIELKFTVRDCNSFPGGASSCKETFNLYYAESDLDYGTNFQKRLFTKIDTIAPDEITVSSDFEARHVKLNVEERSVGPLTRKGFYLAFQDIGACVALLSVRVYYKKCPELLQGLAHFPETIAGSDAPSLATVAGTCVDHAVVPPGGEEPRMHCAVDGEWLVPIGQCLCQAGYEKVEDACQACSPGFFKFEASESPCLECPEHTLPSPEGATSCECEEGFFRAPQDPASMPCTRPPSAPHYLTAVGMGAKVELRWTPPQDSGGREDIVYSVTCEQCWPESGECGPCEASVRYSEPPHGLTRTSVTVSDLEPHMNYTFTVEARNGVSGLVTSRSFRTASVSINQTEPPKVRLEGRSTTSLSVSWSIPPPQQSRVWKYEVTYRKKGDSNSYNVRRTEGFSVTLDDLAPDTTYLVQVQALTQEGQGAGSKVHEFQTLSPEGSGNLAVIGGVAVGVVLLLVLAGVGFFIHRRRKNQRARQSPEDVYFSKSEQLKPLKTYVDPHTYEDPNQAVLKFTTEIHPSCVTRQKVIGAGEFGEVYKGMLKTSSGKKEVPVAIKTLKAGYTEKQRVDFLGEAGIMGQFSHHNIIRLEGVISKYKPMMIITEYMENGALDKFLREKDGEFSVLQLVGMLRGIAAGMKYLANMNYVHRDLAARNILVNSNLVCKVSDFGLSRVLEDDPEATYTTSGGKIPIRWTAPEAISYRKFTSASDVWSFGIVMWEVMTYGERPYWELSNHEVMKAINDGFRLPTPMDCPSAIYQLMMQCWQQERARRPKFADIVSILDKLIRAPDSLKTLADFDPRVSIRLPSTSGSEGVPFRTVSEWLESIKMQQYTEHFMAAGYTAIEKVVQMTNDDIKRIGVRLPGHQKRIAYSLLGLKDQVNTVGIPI
# [10] = target: EphB4 (Homo sapiens (Human), UniProt P54760); assay: Ambit kinase profiling; format: binding
# [11] = target: T1, EphB2; assay: Ambit kinase profiling; format: binding
# [12] = target: EPHB6 (Homo sapiens (Human), UniProt O15197); assay: Ambit kinase profiling; format: binding
# [13] = target: EPHB1 (Homo sapiens (Human), UniProt P54762); assay: Ambit kinase profiling; format: binding
# [14] = target: T3, ERK5 (Homo sapiens (Human), UniProt Q13164); settings: cited from earlier work
# T3 sequence (Q13164 2-816 limits assumed): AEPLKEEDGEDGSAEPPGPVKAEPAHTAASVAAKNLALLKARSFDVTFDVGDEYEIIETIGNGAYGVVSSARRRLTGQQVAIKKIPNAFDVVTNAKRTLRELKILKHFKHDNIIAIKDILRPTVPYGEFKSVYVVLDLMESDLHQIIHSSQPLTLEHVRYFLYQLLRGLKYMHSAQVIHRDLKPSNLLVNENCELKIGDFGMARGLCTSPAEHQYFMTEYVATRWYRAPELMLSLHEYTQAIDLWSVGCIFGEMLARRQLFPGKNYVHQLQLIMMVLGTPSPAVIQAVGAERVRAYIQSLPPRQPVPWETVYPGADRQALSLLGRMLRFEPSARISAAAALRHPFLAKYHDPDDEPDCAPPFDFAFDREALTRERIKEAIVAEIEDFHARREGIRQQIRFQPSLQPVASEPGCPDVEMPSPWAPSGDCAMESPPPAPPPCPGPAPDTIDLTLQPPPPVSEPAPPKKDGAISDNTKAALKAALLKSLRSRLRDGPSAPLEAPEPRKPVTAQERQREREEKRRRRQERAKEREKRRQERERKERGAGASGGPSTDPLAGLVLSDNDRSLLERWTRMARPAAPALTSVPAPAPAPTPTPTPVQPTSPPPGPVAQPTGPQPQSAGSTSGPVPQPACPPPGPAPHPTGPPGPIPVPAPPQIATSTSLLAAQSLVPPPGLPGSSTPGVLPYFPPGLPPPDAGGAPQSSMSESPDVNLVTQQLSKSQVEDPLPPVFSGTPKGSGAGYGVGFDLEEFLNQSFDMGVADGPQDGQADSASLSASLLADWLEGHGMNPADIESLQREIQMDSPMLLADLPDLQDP
# [15] = target: LRRK2 (Homo sapiens (Human), UniProt Q5S007); settings: cited from earlier work
# [16] = system: panel of 442 kinases; settings: cited from earlier work
# [17] = system: panel of 442 kinases; assay: KINOMEscan selectivity profiling; format: binding; settings: 10 μM
# Excerpt: We assessed the selectivity of this scaffold using the KINOMEscan methodology across a near comprehensive panel of 442 kinases. […]
# [18] = target: T3, ERK5; assay: KiNativ chemical proteomics profiling in HeLa and PC3 cell lysates; format: binding; settings: read-out: ERK5 inhibition (KiNativ)
# Excerpt: Compared with our previously reported ERK5 inhibitor, XMD8-92 (11, S10=0.012, 5/402), compound 26 represents a further improvement in selectivity. […] Compounds 25 and 26 were also profiled against selected panels of kinases in HeLa and PC3 cell lysates using a chemical proteomics approach, KiNativ.
# [19] = target: T2, EphA2; assay: In vitro EphA2 kinase assay, Invitrogen EphA2 Z'-LYTE activity assay; format: biochemical
# Description: Example 13: In Vitro EphA2 Kinase Assay—Invitrogen EphA2 Z′-LYTE Activity Assay
# EphA2 kinase assays were performed according to the methods described in Z′-LYTE® Screening Protocol and Assay Conditions at the Life Technologies website (available at http://www.invitrogen.com).
compound,measurement,setting,value
COc1cc(C(=O)N2CCC(N3CCN(C)CC3)CC2)ccc1Nc1ncc2c(n1)-c1ccccc1NC(=O)N2 [XMD16-120],ActivX EphB2,[1],60.1
CN1C(=O)N(C)c2cnc(Nc3ccc(N4CCC(O)CC4)cc3)nc2-c2ccccc21 [XMD16-117],ActivX EphB2,[1],19.8
same,Ambit EPHA8,[2],92 and 100
same,Ambit EPHA7,[3],100
same,Ambit EPHA4,[4],84
same,Ambit EPHA5,[5],91
same,Ambit EPHB3,[6],93
same,Ambit EPHA3,[7],47
same,Ambit EPHA1,[8],69
same,Ambit EPHA2,[9],100
same,Ambit EPHB4,[10],91
same,Ambit EPHB2,[11],100
same,Ambit EPHB6,[12],20
same,Ambit EPHB1,[13],91
"O=C(Nc1cccnc1)c1cc(-c2ccnc(F)c2)ccc1OCc1ccccc1 [GSK2578215A, 2-arylmethyloxy-5-subtitutent-N-arylbenzamide]",ERK5 inhibition as reported,[14],do not inhibit ERK5
same,LRRK2 inhibition as reported,[15],potent LRRK2 inhibitors
CN1C(=O)N(Cc2c(Cl)cccc2Cl)c2ccccc2-c2nc(Nc3ccc(N4CCC(O)CC4)cc3)ncc21 [XMD16-122-2],ActivX EphB2,[1],−5.5
COc1cc(N2CCN(C)CC2)ccc1Nc1ncc2c(n1)-c1ccccc1N(C1CCOCC1)C(=O)N2 [AB-1-16],ActivX EphB2,[1],7
CN1C(=O)N(C2CCCC2)c2ccccc2-c2nc(Nc3ccc(N4CCC(O)CC4)cc3)ncc21 [AB-1-24],ActivX EphB2,[1],6.8
COc1cc(C(=O)N2CCC(N3CCN(C)CC3)CC2)ccc1Nc1ncc2c(n1)N(C)c1ccccc1C(=O)N2C [LRRK2-IN-1],KINOMEscan selectivity score S10,"[16]; previous LRRK2 inhibitor, 16/442",0.036
O=C1Nc2cnc(Nc3ccc(N4CCC(O)CC4)cc3)nc2-c2ccccc2N1Cc1c(Cl)cccc1Cl [XMD16-101-2],ActivX EphB2,[1],0.6
COc1cc(C(=O)N2CCC(N3CCN(C)CC3)CC2)ccc1Nc1ncc2c(n1)-c1ccccc1N(Cc1ccccc1C)C(=O)N2C [XMD16-125],ActivX EphB2,[1],0.9
XMD8-92,KINOMEscan selectivity score S10,"[16]; previously reported, 5/402 kinases",0.012
"CNc1nc(Nc2ccc(C(=O)N3CCOCC3)cc2OC)ncc1Cl [HG-10-102-01, (4-((5-chloro-4-(methylamino)pyrimidin-2-yl)amino)-3-methoxyphenyl)(morpholino)methanone]",ERK5 inhibition as reported,[14],do not inhibit ERK5
same,LRRK2 inhibition as reported,[15],potent LRRK2 inhibitors
COc1cc(C(=O)N2CCC(N3CCN(C)CC3)CC2)ccc1Nc1ncc2c(n1)N(C1CCCC1)c1ccccc1C(=O)N2C [Compound 25],KINOMEscan selectivity score S10,[17],0.018
same,inhibition at 10 µM,[18],> 90%
CN1C(=O)N(Cc2ccccc2Cl)c2ccccc2-c2nc(Nc3ccc(N4CCC(O)CC4)cc3)ncc21 [XMD16-122-1],ActivX EphB2,[1],−13
COc1cc(C(=O)N2CCC(N3CCN(C)CC3)CC2)ccc1Nc1ncc2c(n1)-c1ccccc1N(Cc1ccccc1C)C(=O)N2 [XMD16-121],ActivX EphB2,[1],12.2
COc1cc(N2CCN(C)CC2)ccc1Nc1ncc2c(n1)-c1ccccc1N(C1CCCC1)C(=O)N2 [AB-1-15],ActivX EphB2,[1],5.2
O=C1Nc2ccccc2-c2nc(Nc3ccc(N4CCC(O)CC4)cc3)ncc2N1 [XMD16-95],ActivX EphB2,[1],97.2
O=C1Nc2cnc(Nc3ccc(N4CCC(O)CC4)cc3)nc2-c2ccccc2N1C1CCCC1 [AB-1-17],ActivX EphB2,[1],21.5
COc1cc(C(=O)N2CCC(N3CCN(C)CC3)CC2)ccc1Nc1ncc2c(n1)-c1ccccc1N(Cc1ccccc1Cl)C(=O)N2C [XMD16-123-1],ActivX EphB2,[1],2.5
Cc1ccccc1CN1C(=O)N(C)c2cnc(Nc3ccc(N4CCC(O)CC4)cc3)nc2-c2ccccc21 [XMD16-124],ActivX EphB2,[1],18.3
same,Ambit EPHA8,[2],100
same,Ambit EPHA7,[3],100
same,Ambit EPHA4,[4],89
same,Ambit EPHA5,[5],90
same,Ambit EPHB3,[6],93
same,Ambit EPHA3,[7],77
same,Ambit EPHA1,[8],81
same,Ambit EPHA2,[9],93
same,Ambit EPHB4,[10],99
same,Ambit EPHB2,[11],100
same,Ambit EPHB6,[12],78
same,Ambit EPHB1,[13],84
COc1cc(C(=O)N2CCC(N3CCN(C)CC3)CC2)ccc1Nc1ncc2c(n1)-c1ccccc1N(C1CCCC1)C(=O)N2 [XMD16-127],ActivX EphB2,[1],2
same,EphA2 Activity (% Inhibition at 10 micromolar),[19],−1.1% and −10.5%
O=C1Nc2cnc(Nc3ccc(N4CCC(O)CC4)cc3)nc2-c2ccccc2N1Cc1ccccc1Cl [XMD16-101-1],ActivX EphB2,[1],6.1
COc1cc(C(=O)N2CCC(N3CCN(C)CC3)CC2)ccc1Nc1ncc2c(n1)-c1ccccc1N(C1CCOCC1)C(=O)N2 [XMD16-128],ActivX EphB2,[1],4.5
same,EphA2 Activity (% Inhibition at 10 micromolar),[19],−5.1% and −8.2%
COc1cc(C(=O)N2CCC(N3CCN(C)CC3)CC2)ccc1Nc1ncc2c(n1)-c1ccccc1N(C)C(=O)N2C [XMD16-118],ActivX EphB2,[1],−20.9
